Reference: ChEMBL document CHEMBL6177995, “In Silico Discovery of Novel Potent Trace Amine-Associated Receptor TAAR1 Agonists as Promising Drug Candidates for the Treatment of Schizophrenia” (J Med Chem, 2025)

Assays:
[1] = molecular target: T1, Trace amine-associated receptor 1 (Homo sapiens, UniProt Q96RJ0); assay: Agonist activity at TAAR1 (unknown origin) transfected in HEK293 cells co-transfected with Galphaq-Nluc, Gbeta1/3 and Ggamma1/2/9-mVenus assessed as Galphaq-Gbeta/gamma dissociation by BRET assay; assay type: functional, cell-based
T1 sequence (Q96RJ0 whole entry): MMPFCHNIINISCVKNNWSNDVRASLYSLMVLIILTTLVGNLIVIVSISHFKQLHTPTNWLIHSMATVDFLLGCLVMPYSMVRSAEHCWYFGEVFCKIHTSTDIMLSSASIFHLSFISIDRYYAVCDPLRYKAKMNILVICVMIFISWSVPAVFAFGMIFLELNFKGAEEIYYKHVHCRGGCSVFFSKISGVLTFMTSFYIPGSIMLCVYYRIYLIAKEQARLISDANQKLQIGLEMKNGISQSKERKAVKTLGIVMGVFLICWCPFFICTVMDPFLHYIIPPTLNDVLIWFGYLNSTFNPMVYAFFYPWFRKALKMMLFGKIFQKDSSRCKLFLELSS

[2] = molecular target: T1, Trace amine-associated receptor 1; assay: Agonist activity at TAAR1 (unknown origin) transfected in HEK293 cells co-transfected with GalphaS-Nluc, Gbeta1/3 and Ggamma1/2/9-mVenus assessed as GalphaS-Gbeta/gamma dissociation by BRET assay; assay type: functional, cell-based

Structure (SMILES) | EC50 [1] [µM] | EC50 [2] [µM]
Cc1ccc(S(=O)(=O)NC[C@@H]2CCCN2)cc1 | > 10 | > 10
O=[N+]([O-])c1cccc(S(=O)(=O)NC[C@@H]2CCCN2)c1 | > 10 | > 10
O=S(=O)(NC[C@@H]1CCCN1)c1ccc(Cl)cc1 | > 10 | > 10
O=S(=O)(NC[C@@H]1CCCN1)c1c(Cl)cccc1Cl | > 10 | > 10
Cc1cccc(S(=O)(=O)NC[C@@H]2CCCN2)c1 | > 10 | > 10
CC(C)CC(N)c1nc2ccccc2[nH]1 (stereo not given) | – | 0.1
N[C@H]1CN(c2ncccc2C(F)(F)F)C[C@@H]1C1CC1 | 0.0912 | –
CCC[C@H]1CN(C(=O)c2cc(Cl)cn2C)C[C@@H]1N | – | 0.275
N#Cc1cccc(S(=O)(=O)NC[C@@H]2CCCN2)c1 | > 10 | > 10
